Test results taken from PMC13385394, “Cryo-EM Structure of the TRPC1/5 Heteromer Enables Design of Antidepressant and Anxiolytic Drug with Reduced Side Effects” (Nature Communications, 2026).

Molecular target: T1, TRPC4 homomer (Homo sapiens, UniProt Q9UBN4)
T1 construct: expressed in transfected cells
T1 sequence (Q9UBN4 1-977): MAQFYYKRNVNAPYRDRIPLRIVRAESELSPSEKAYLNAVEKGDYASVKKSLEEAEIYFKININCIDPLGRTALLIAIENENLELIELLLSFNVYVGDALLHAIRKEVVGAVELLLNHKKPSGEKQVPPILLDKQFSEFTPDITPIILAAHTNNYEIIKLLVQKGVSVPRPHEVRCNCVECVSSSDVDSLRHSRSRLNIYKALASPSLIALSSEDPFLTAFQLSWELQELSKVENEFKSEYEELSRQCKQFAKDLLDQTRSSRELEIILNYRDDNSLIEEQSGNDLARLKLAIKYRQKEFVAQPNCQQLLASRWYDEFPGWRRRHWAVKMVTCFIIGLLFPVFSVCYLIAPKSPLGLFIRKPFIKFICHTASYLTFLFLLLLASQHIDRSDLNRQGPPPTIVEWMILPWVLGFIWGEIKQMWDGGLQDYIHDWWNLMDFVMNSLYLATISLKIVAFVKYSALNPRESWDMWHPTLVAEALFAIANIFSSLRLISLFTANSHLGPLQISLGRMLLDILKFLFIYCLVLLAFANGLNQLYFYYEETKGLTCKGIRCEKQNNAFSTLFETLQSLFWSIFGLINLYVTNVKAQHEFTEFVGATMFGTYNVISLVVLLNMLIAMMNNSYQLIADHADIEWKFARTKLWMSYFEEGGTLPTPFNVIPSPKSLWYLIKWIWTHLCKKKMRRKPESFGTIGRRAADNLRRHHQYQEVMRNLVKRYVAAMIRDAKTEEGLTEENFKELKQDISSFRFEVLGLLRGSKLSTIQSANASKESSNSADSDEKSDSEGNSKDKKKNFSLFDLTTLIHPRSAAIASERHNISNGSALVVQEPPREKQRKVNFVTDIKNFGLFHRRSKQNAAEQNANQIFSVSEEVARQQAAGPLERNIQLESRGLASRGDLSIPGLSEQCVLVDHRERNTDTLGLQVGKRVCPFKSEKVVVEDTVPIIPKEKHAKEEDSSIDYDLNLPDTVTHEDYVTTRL
Assay: Whole-cell patch-clamp, inhibition of TRPC4 homomer
Type: cell-based
Conditions: read-out: IC50, TRPC4 homomers

## CN(C)CCCCn1c(=O)c2c(nc(Oc3cccc(Cl)c3)n2Cc2ccc(Cl)cc2)n(C)c1=O [H08]
  IC50: 2.38 µM
